Drawing on patent publication US20110086759A1, “CHEMICAL COMPOUNDS” (SYNGENTA CROP PROTECTION, INC., priority 2007, published 2011), this text covers pest or weed control for seven molecules.

SMILES strings stand for the structures.

Format in all cases: in vivo
The test system of experiment [1] is Ipomea hederaceae (IPOHE). As to the kind of experiment: Post-emergence biological efficacy, glasshouse pot test. The settings on record: Ipomoea hederacea, 312 h. In short, it runs like this:
(§1)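 Pot-grown weeds were sprayed 8 days after sowing with test compound in acetone/water (50:50) with 0.5% Tween 20 at 1000 or 250 g/ha. Glasshouse at 24/16° C day/night, 14 h light, 65% humidity. Damage scored 0-100 (100 = total damage) after 13 days.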

The subject of experiment [2] is Alopecurus myosuroides (ALOMY). Described as above. The settings on record: 312 h. The procedure, abridged: as §1
Experiment [3] deals with Setaria faberi (SETFA). The experiment is described as above. The settings on record: 312 h. In short, it runs like this:
as §1

Experiment [4] relates to Solanum nigrum (SOLNI). The experiment is described as above. The settings on record: 312 h. In short, it runs like this: as §1
Experiment [5] relates to Echinochloa crus-galli (ECHCG). The experiment is described as above. The settings on record: 312 h. In short, it runs like this: as §1
The test system of experiment [6] is Amaranthus retoflexus (AMARE). The experiment is described as above. The settings on record: Amaranthus retroflexus, 312 h. In short, it runs like this:
as §1

Experiment [7] relates to Ipomea hederaceae (IPOHE). Put plainly: Pre-emergence biological efficacy, glasshouse pot test. The settings on record: Ipomoea hederacea, 312 h. The procedure, abridged:
(§2)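 Damage rated 0–100 (100 = total kill) 13 days post-spray. Pots of standard soil were sown and sprayed after one day with test compound at 1000 or 250 g/ha in acetone/water (50:50) plus 0.5% Tween 20.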

Experiment [8] has as its system Alopecurus myosuroides (ALOMY). The description is as above. The settings on record: 312 h. In short, it runs like this:
as §2

The subject of experiment [9] is Setaria faberi (SETFA). Described as above. The settings on record: 312 h. In short, it runs like this:
as §2

In experiment [10] the test system is Solanum nigrum (SOLNI). Described as above. The settings on record: 312 h. In short, it runs like this: as §2
In experiment [11] the test system is Echinochloa crus-galli (ECHCG). The experiment is described as above. The settings on record: 312 h. The procedure, abridged:
as §2

In experiment [12] the test system is Amaranthus retoflexus (AMARE). Described as above. The settings on record: Amaranthus retroflexus, 312 h. The procedure, abridged:
as §2

Setting [13] is: post-emergence, 1,000 g/ha, evaluated after 13 days (100=total damage; 0=no damage), read-out: Percentage damage caused to weed species, IPOHE.
Setting [14] is: post-emergence, 1,000 g/ha, evaluated after 13 days (100=total damage; 0=no damage), read-out: Percentage damage caused to weed species, ALOMY.
The mark [15] stands for this setting: post-emergence, 1,000 g/ha, evaluated after 13 days (100=total damage; 0=no damage), read-out: Percentage damage caused to weed species, SETFA.
[16] abbreviates: post-emergence, 1,000 g/ha, evaluated after 13 days (100=total damage; 0=no damage), read-out: Percentage damage caused to weed species, SOLNI.
The mark [17] stands for this setting: post-emergence, 1,000 g/ha, evaluated after 13 days (100=total damage; 0=no damage), read-out: Percentage damage caused to weed species, ECHCG.
Setting [18] is: post-emergence, 1,000 g/ha, evaluated after 13 days (100=total damage; 0=no damage), read-out: Percentage damage caused to weed species, AMARE.
Setting [19] is: pre-emergence, 1,000 g/ha, evaluated after 13 days (100=total damage; 0=no damage), read-out: Percentage damage IPOHE.
Setting [20] is: pre-emergence, 1,000 g/ha, evaluated after 13 days (100=total damage; 0=no damage), read-out: Percentage damage ALOMY.
[21] abbreviates: pre-emergence, 1,000 g/ha, evaluated after 13 days (100=total damage; 0=no damage), read-out: Percentage damage SETFA.
The mark [22] stands for this setting: pre-emergence, 1,000 g/ha, evaluated after 13 days (100=total damage; 0=no damage), read-out: Percentage damage SOLNI.
Where [23] appears, read: pre-emergence, 1,000 g/ha, evaluated after 13 days (100=total damage; 0=no damage), read-out: Percentage damage ECHCG.
[24] abbreviates: pre-emergence, 1,000 g/ha, evaluated after 13 days (100=total damage; 0=no damage), read-out: Percentage damage AMARE.
[25] abbreviates: Rate 1,000 g/ha, post-emergence spray, evaluated after 13 days (100=total damage to plant; 0=no damage to plant), read-out: Percentage damage caused to weed species, post-emergence, IPOHE.
The mark [26] stands for this setting: Rate 1,000 g/ha, post-emergence spray, evaluated after 13 days (100=total damage to plant; 0=no damage to plant), read-out: Percentage damage caused to weed species, post-emergence, ALOMY.
The mark [27] stands for this setting: Rate 1,000 g/ha, post-emergence spray, evaluated after 13 days (100=total damage to plant; 0=no damage to plant), read-out: Percentage damage caused to weed species, post-emergence, SETFA.
[28] abbreviates: Rate 1,000 g/ha, post-emergence spray, evaluated after 13 days (100=total damage to plant; 0=no damage to plant), read-out: Percentage damage caused to weed species, post-emergence, SOLNI.
Setting [29] is: Rate 1,000 g/ha, post-emergence spray, evaluated after 13 days (100=total damage to plant; 0=no damage to plant), read-out: Percentage damage caused to weed species, post-emergence, ECHCG.
The mark [30] stands for this setting: Rate 1,000 g/ha, post-emergence spray, evaluated after 13 days (100=total damage to plant; 0=no damage to plant), read-out: Percentage damage caused to weed species, post-emergence, AMARE.
Setting [31] is: pre-emergence, rate 1,000 g/ha, evaluated after 13 days (100=total damage to plant; 0=no damage), read-out: Percentage damage caused to weed species, IPOHE.
The mark [32] stands for this setting: pre-emergence, rate 1,000 g/ha, evaluated after 13 days (100=total damage to plant; 0=no damage), read-out: Percentage damage caused to weed species, ALOMY.
The mark [33] stands for this setting: pre-emergence, rate 1,000 g/ha, evaluated after 13 days (100=total damage to plant; 0=no damage), read-out: Percentage damage caused to weed species, SETFA.
[34] abbreviates: pre-emergence, rate 1,000 g/ha, evaluated after 13 days (100=total damage to plant; 0=no damage), read-out: Percentage damage caused to weed species, SOLNI.
Where [35] appears, read: pre-emergence, rate 1,000 g/ha, evaluated after 13 days (100=total damage to plant; 0=no damage), read-out: Percentage damage caused to weed species, ECHCG.
[36] abbreviates: pre-emergence, rate 1,000 g/ha, evaluated after 13 days (100=total damage to plant; 0=no damage), read-out: Percentage damage caused to weed species, AMARE.

Regarding `O=C(O)c1nc(C2CC2)nc(NCc2ccc(F)cc2)c1Cl` [Compound 1-66, 5-Chloro-2-cyclopropyl-4-(4-fluorophenylmethyl-amino)pyrimidine-6-carboxylic acid], the pest or weed control at 1000 g/ha in experiment [1] (setting [13]) stood at 80%; in experiment [2] (setting [14]), 10%; with Setaria faberi (SETFA) [3] (setting [15]) it was 80%; in the experiment on Solanum nigrum (SOLNI) [4] (setting [16]) it was 90%; in experiment [5] (setting [17]), 50%; in experiment [6] (setting [18]) it was 100%. Further, the pest or weed control at 1000 g/ha in experiment [7] (setting [19]) amounted to 90%; in experiment [8] (setting [20]), 10%; with Setaria faberi (SETFA) [9] (setting [21]), 10%; in the experiment with Solanum nigrum (SOLNI) [10] (setting [22]), 60%; in experiment [11] (setting [23]) it was 10%; in experiment [12] (setting [24]), 50%.

Turning to `COC(=O)c1nc(-c2ccc(Cl)c(C(F)(F)F)c2)nc(NCc2ccco2)c1Cl` [Compound 217-48, 5-Chloro-2-(4-chloro-3-trifluoromethyl-phenyl)-4-(furan-2-ylmethylamino)-6-methoxycarbonyl-pyrimidine], the pest or weed control at 1000 g/ha in experiment [1] (setting [25]) came to 30%; in experiment [2] (setting [26]) it was 10%; in the experiment with Setaria faberi (SETFA) [3] (setting [27]), 20%; in the experiment on Solanum nigrum (SOLNI) [4] (setting [28]) it was 70%; in experiment [5] (setting [29]) it was 0%; in [6] (setting [30]) it was 80%. Also, the pest or weed control at 1000 g/ha in [7] (setting [31]) stood at 0%; in [8] (setting [32]), 20%; with Setaria faberi (SETFA) [9] (setting [33]) it was 20%; with Solanum nigrum (SOLNI) [10] (setting [34]), 50%; in [11] (setting [35]) it was 0%; in [12] (setting [36]), 20%.

With `C=CCC(Nc1nc(C2CC2)nc(C(=O)OC)c1Cl)c1ccccn1` (stereo not drawn) [Compound 4-199, 5-Chloro-2-cyclopropyl-6-methoxycarbonyl-4-[1-(pyrid-2-yl)-but-3-enylamino]-pyrimidine], the pest or weed control at 1000 g/ha was 80% in [1] (setting [13]); 0% in [2] (setting [14]); 0% with Setaria faberi (SETFA) [3] (setting [15]); 60% with Solanum nigrum (SOLNI) [4] (setting [16]); 0% in [5] (setting [17]); 50% in [6] (setting [18]). In addition, the pest or weed control at 1000 g/ha in experiment [7] (setting [19]) is 40%; in [8] (setting [20]) it was 0%; in the experiment on Setaria faberi (SETFA) [9] (setting [21]) it was 0%; in the experiment with Solanum nigrum (SOLNI) [10] (setting [22]), 0%; in experiment [11] (setting [23]), 0%; in experiment [12] (setting [24]) it was 0%.

In the case of `COC(=O)c1nc(C2CC2)nc(NCC(F)c2ccccc2Br)c1Cl` (stereo not drawn) [Compound 4-234, 4-[2-(2-Bromophenyl)-2-fluoro-ethylamino]-5-chloro-2-cyclopropyl-6-methoxycarbonyl-pyrimidine], the pest or weed control at 1000 g/ha came to 60% in [1] (setting [13]); 0% in experiment [2] (setting [14]); 30% in the experiment on Setaria faberi (SETFA) [3] (setting [15]); 70% in the experiment with Solanum nigrum (SOLNI) [4] (setting [16]); 20% in [5] (setting [17]); 90% in experiment [6] (setting [18]). Moreover, the pest or weed control at 1000 g/ha in experiment [7] (setting [19]) was 0%; in experiment [8] (setting [20]), 0%; with Setaria faberi (SETFA) [9] (setting [21]), 0%; in the experiment with Solanum nigrum (SOLNI) [10] (setting [22]), 0%; in [11] (setting [23]) it was 0%; in experiment [12] (setting [24]) it was 10%.

Consider `CCN(Cc1c(F)cccc1Cl)c1nc(C2CC2)nc(C(=O)OC)c1Cl` [Compound 6-102, 5-Chloro-4-[N-(2-chloro-6-fluorophenylmethyl)-N-ethyl-amino]-2-cyclopropyl-6-methoxycarbonyl-pyrimidine], for which the pest or weed control at 1000 g/ha was 90% in [1] (setting [25]); 20% in experiment [2] (setting [26]); 80% in the experiment on Setaria faberi (SETFA) [3] (setting [27]); 90% in the experiment on Solanum nigrum (SOLNI) [4] (setting [28]); 70% in experiment [5] (setting [29]); 100% in [6] (setting [30]). In addition, the pest or weed control at 1000 g/ha in experiment [7] (setting [31]) was found to be 60%; in experiment [8] (setting [32]), 0%; with Setaria faberi (SETFA) [9] (setting [33]) it was 0%; with Solanum nigrum (SOLNI) [10] (setting [34]), 60%; in experiment [11] (setting [35]), 0%; in experiment [12] (setting [36]), 100%.

Turning to `COC(=O)c1nc(C2CC2)nc(NC2CC2)c1Cl` [Compound 4-1, 5-Chloro-2-cyclopropyl-4-cyclopropylamino-6-methoxycarbonyl-pyrimidine], the pest or weed control at 1000 g/ha in experiment [1] (setting [13]) was determined as 90%; in experiment [2] (setting [14]), 60%; in the experiment on Setaria faberi (SETFA) [3] (setting [15]), 80%; in the experiment on Solanum nigrum (SOLNI) [4] (setting [16]) it was 100%; in experiment [5] (setting [17]), 60%; in experiment [6] (setting [18]) it was 100%. Besides, the pest or weed control at 1000 g/ha in [7] (setting [19]) is 90%; in experiment [8] (setting [20]), 40%; in the experiment with Setaria faberi (SETFA) [9] (setting [21]), 60%; with Solanum nigrum (SOLNI) [10] (setting [22]), 100%; in experiment [11] (setting [23]), 50%; in experiment [12] (setting [24]), 100%.

In the case of `COC(=O)c1nc(C2CC2)nc(N[C@H]2COC[C@H]2O)c1Cl` [4-38 (S,S), 5-Chloro-2-cyclopropyl-4-[(3S, 4S)-4-hydroxytetra-hydrofuran-3-ylamino]-6-methoxycarbonyl-pyrimidine], the pest or weed control at 1000 g/ha worked out at 30% in [1] (setting [13]); 30% in [2] (setting [14]); 60% in the experiment on Setaria faberi (SETFA) [3] (setting [15]); 80% with Solanum nigrum (SOLNI) [4] (setting [16]); 10% in experiment [5] (setting [17]); 100% in experiment [6] (setting [18]). In addition, the pest or weed control at 1000 g/ha in [7] (setting [19]) worked out at 70%; in [8] (setting [20]), 20%; in the experiment with Setaria faberi (SETFA) [9] (setting [21]), 30%; with Solanum nigrum (SOLNI) [10] (setting [22]), 80%; in [11] (setting [23]), 30%; in [12] (setting [24]), 100%.
